From patent US7105531B2, “Tricyclic protein kinase inhibitors” (WYETH, priority 1999, dated 2006)

| melting point | SMILES |
| --- | --- |
| > 300 °C | COc1cc2cc3c(Nc4ccc(Sc5nccn5C)c(Cl)c4)c(C#N)cnc3cc2cc1OCCN1CCOCC1 [Example 149] |
| > 300 °C | COc1cc2cc3c(Nc4ccc(Sc5nccn5C)c(Cl)c4)c(C#N)cnc3cc2cc1OCCCCl [Example 150, 4-[3-Chloro-4-(1-methyl-1H-imidazol-2-ylsulfanyl)phenylamino]-8-(3-chloropropoxy)-7-methoxybenzo[g]quinoline-3-carbonitrile] |
| 184 to 186 °C | COc1cc2cc3c(Nc4ccc(Sc5nccn5C)c(Cl)c4)c(C#N)cnc3cc2cc1OCCN1CCN(C)CC1 [Example 152, 4-[3-Chloro-4-(1-methyl-1H-imidazol-2-ylsulfanyl)phenylamino]-7-methoxy-8-[2-(4-methylpiperazin-1-yl)ethoxy]-benzo[g]quinoline-3-carbonitrile] |
| 201 to 207 °C | COc1cc2cc3c(Nc4ccc(Sc5nccn5C)c(Cl)c4)c(C#N)cnc3cc2cc1OCCn1ccnn1 [Example 154, 4-[3-Chloro-4-(1-methyl-1H-imidazol-2-ylsulfanyl)phenylamino]-7-methoxy-8-(2-[1,2,3]triazol-1-yl-ethoxy)benzo[g]quinoline-3-carbonitrile] |
| 266 to 270 °C (dec.) | COc1cc2cc3c(Nc4ccc(Cl)cc4Cl)c(C#N)cnc3nc2cc1OC [Example 177, 4-(2,4-Dichloroanilino)-7,8-dimethoxybenzo[b][1,8]naphthyridine-3-carbonitrile] |

The next lines start with the molecule.

| SMILES | melting point |
| --- | --- |
| COc1cc2cc3c(Nc4ccc(Sc5nccn5C)c(Cl)c4)c(C#N)cnc3cc2cc1OCCCl [Example 148, 8-(2-Chloroethoxy)-4-[3-chloro-4-(1-methyl-1H-imidazol-2-ylsulfanyl)phenylamino]-7-methoxybenzo[g]quinoline-3-carbonitrile] | 275 to 280 °C |
| COc1cc2cc3c(Nc4ccc(Sc5nccn5C)c(Cl)c4)c(C#N)cnc3cc2cc1OCCCN1CCOCC1 [Example 151, 4-[3-Chloro-4-(1-methyl-1H-imidazol-2-ylsulfanyl)phenylamino]-7-methoxy-8-(3-morpholin-4-yl-propoxy)benzo[g]quinoline-3-carbonitrile] | 230 to 235 °C |
| COc1cc2cc3c(Nc4cc(OC)c(Cl)cc4Cl)c(C#N)cnc3cc2cc1O [Example 155, 4-(2,4-Dichloro-5-methoxyphenylamino)-8-hydroxy-7-methoxybenzo[g]quinoline-3-carbonitrile] | 238 to 240 °C |
| COc1cc(Nc2c(C#N)cnc3cc4cc(OCCCCl)c(OC)cc4cc23)c(Cl)cc1Cl [Example 156, 8-(3-Chloropropoxy)-4-(2,4-dichloro-5-methoxyphenylamino)-7-methoxybenzo[g]quinoline-3-carbonitrile] | 220 to 223 °C |
| COc1cc2cc3c(Nc4ccc(Sc5nccn5C)c(Cl)c4)c(C#N)cnc3nc2cc1OCCCl [Example 174, 8-(2-Chloroethoxy)-4-{3-chloro-4-[(1-methyl-1H-imidazol-2-yl)sulfanyl]anilino}-7-methoxybenzo[b][1,8]naphthyridine-3-carbonitrile] | > 250 °C (dec.) |
| COc1cc(Nc2c(C#N)cnc3nc4cc(OCCN5CCN(C)CC5)c(OC)cc4cc23)c(Cl)cc1Cl [Example 175, 4-(2,4-Dichloro-5-methoxyanilino)-7-methoxy-8-[2-(4-methyl-1-piperazinyl)ethoxy]benzo[b][1,8]naphthyridine-3-carbonitrile] | 240 to 243 °C (dec.) |
| COc1cc2cc3c(Nc4ccc(Sc5nccn5C)c(Cl)c4)c(C#N)cnc3nc2cc1OCCN1CCOCC1 [Example 176, 4-{3-Chloro-4-[(1-methyl-1H-imidazol-2-yl)sulfanyl]anilino}-7-methoxy-8-[2-(4-morpholinyl)ethoxy]benzo[b][1,8]naphthyridine-3-carbonitrile] | 160 to 162 °C (dec.) |
| COc1cc2cc3c(Nc4cc(OC)c(OC)c(OC)c4)c(C#N)cnc3nc2cc1OC [Example 178, 7,8-Dimethoxy-4-(3,4,5-trimethoxyanilino)benzo[b][1,8]naphthyridine-3-carbonitrile] | 250 to 252 °C (dec.) |
